Results on one compound are retold here after patent US20240361265A1, “APPARATUS AND METHODS FOR EXTRACELLULAR IMPEDANCE SPECTROSCOPY OF BARRIER CELLS” (Georgia Tech Research Corporation, priority 2023, published 2024).

For one assay, the system named is iPSC-RPE (Z8). Put plainly: Extracellular EIS of iPSC-RPE response to apical ATP in perfusion chamber versus Ussing chamber. It counts as cell-based, human. As for the experimental part: EIS measurements were performed with an Autolab PGSTAT204 with a FRA32M […] (Utrecht, Netherlands). The device was controlled with the provided NOVA 2.1.5 software to perform frequency sweeps from 0.1 Hz to 10 kHz. The NOVA software was used to send up to 5 simultaneous frequencies spaced to approximately 5 unique measurements per decade. The PGSTAT working electrode was connected to the working electrode and counter electrode; the sense and reference electrodes were connected to the basal and apical baths through the Ringer-based agar bridges (connected to Ag|AgClreference electrodes in a saturated KCl bath), respectively.
Chamber design and extracellular epithelial properties: A custom device was assembled to rapidly and noninvasively evaluate the evoked responses and recovery of RPE to extracellular ATP (FIG. 4.3).
The “perfusion” chamber in FIG. 8A was created using the same Acrylic material as the Ussing chamber but was designed to interface with an intact, 12-well Transwell insert (Corning costar 3460). Ag|AgCl wires were used as the working and counter electrodes. These electrodes were shaped into a symmetric ring of maximum diameter that fits inside the chamber and placed as far from the epithelia as possible to maximize uniformity of the current flux across the tissue. The sense and reference electrodes (used to measure TEP) were single-junction KCl reference electrodes. The KCl reference electrode was constructed with an Ag|AgCl wire that was inserted in a glass body (1.5 mm outer diameter) and backfilled with 3 M KCl. The terminus of these electrodes was made of a Vycor frit that enabled electrical contact between the 3 M KCl solution and the perfusate. Ag|AgCl electrodes were selected due to their rapid and reversible redox reactions, and the bridges were designed to minimize the effect of drifting Cl− ion concentrations on the electrode junction potential. The sense and reference electrodes were inserted through the cylinders extruding through the top of the device such that they were positioned as close as possible to the tissue. The design of the Acrylic cylinders included a kinematic constraint for the electrodes to ensure that the distance between the tissue and voltage-sensing probes was consistent across all experiments.
For example, the magnitudes of extracellular tissue properties in normal Ringer's solution should be compared.
Furthermore, to ensure that the perfusion device can maintain the health and function of epithelia during long experiments, a simple experiment was devised to last at least 45 min; sufficient for rigorous RPE experiments performed in literature ([39′], [7′]). During this experiment the tissues were briefly exposed (approximately 10 min) to 100 μM ATP at the apical membrane. […]

The next assay deals with iPSC-derived RPE. Briefly: Combined intracellular pipette and EIS (3P-EIS) recording of iPSC-RPE response to apical ATP in modified Ussing chamber. It counts as cell-based, human. To be noted: for membrane-specific capacitance changes: apical ATP stimulation. As for the experimental part: Human iPSC-RPE cells. The study performed the protocol for induced pluripotent stem cell (iPSC) differentiation described in [29]. Briefly, for each individual iPSC line, somatic cells (blood or fibroblasts) were isolated from a single donor and were reprogrammed using the Sendai virus or episomal reprograming methods. Reprogramed iPSC colonies were differentiated into RPE using the protocol described by Sharma et al.. iPSC-derived RPE cells were seeded onto Corning 3406 Transwells, with a seeding density of 300,000 cells/cm^2 and 250,000 cells/cm^2 and were measured at approximately 300 days old. Fully-mature RPE cells were characterized with a transmission electron microscope (TEM) for morphology, gene expression, and immunostaining for RPE-specific markers. For iPSC genotype, TaqMan genotyping assays (ThermoFisher) were used. The following probes were tested: rs1061170 (Assay ID: AHI1TPW; 4331349); rs2230199 (Assay ID: C_26330755_10; 4351379). SNP rs10490924 (Assay ID: C_29934973_20; 4351379). Two human donors were used to derive iPSC-RPE for this experiment. Samples 1 and 2 were derived from donor A, and sample 3 was derived from donor B.
Tissue mounting and maintenance. The study performed the method for mounting the tissue into the modified Ussing chamber for electrophysiology described in [32]. Briefly, a 7 mm diameter, circular section of the iPSC-RPE Transwell was punched out, mounted, and sealed into the chamber, apical side up. Electrical current leak, due to poor sealing between the Ussing chamber and the Transwell punch-out, was minimized by placing a nylon mesh insert beneath the sample so that the iPSC-RPE made contact around the entire circumference of the chamber. The total exposed tissue cross-section was approximately 0.11 cm^2. Experimental solutions were perfused across both sides of the tissue for the entire duration of the experiment.
Electrophysiological solution. The standard, control solution was the same modified Ringer's solution as has been described previously. In brief, the solution contains (in mM): 5 KCl, 116.5 NaCl, 23 NaHCO3, 0.5 MgCl2, 1.8 CaCl2, 2 taurine, 5 glucose, and 10 sucrose. All salts (except for CaCl2) were mixed into de-ionized water at room temperature (20 C). The solution was bubbled for approximately 5 minutes with 95% CO2 before the addition of CaCl2. […] During an experiment, the solution was continuously bubbled with a custom gas mixture (5% CO2, 10% 02, and 85% N2) to maintain the Ringer's solution to a pH near 7.4±0.1.
Measurement Setup and Electrode Configuration. To measure the apical and basolateral bath voltages, Ringer-filled 3.5% agar bridges were connected to saturated KCl baths with submerged, double-junction AgCl reference electrodes (Fisher Scientific, Accumet, cat. No. 13-620-855). AgCl-coated Ag wires (0.01″ diameter) were submerged directly into the apical and basolateral baths to apply current across the tissues during galvanostatic measurements. The Ussing chamber was rotated approximately 30 degrees from horizontal during each experiment to simultaneously enable equal fluidic pressures across the epithelia while simultaneously allowing for apical bath access for intracellular pipettes.
The study performed the protocol for inserting a pipette into the cell's cytoplasm (FIG. 5C, node 3) for intracellular recordings described in [32]. Briefly, a LabVIEW-based controller was used to insert a pipette—backfilled with 150 mM NaCl—into the cytoplasm of a single cell using an N-565.260 piezoelectric motor connected to an E-861.1A1 single-axis controller box (Physik Instrumente). The pipette voltage was amplified using a Multiclamp 700B (Molecular Devices) amplifier, and the trans-epithelial potential (TEP) signal was amplified using a VCC 600 (Physiologic Instruments). The primary output of the Multiclamp 700B had the settings: 10 mV/mV in “Membrane Potential” mode with “gain” set to 1, and the Bessel filter was set to 30 kHz. […]

In the case of `Nc1ncnc2c1ncn2[C@@H]1O[C@H](COP(=O)(O)OP(=O)(O)OP(=O)(O)O)[C@@H](O)[C@H]1O` [ATP, adenosine triphosphate], in the assay with iPSC-RPE (Z8) (100 μM apical ATP, about 10 min, Ussing chamber), the “tissue capacitance (Ct) average decrease” value stood at 3%. Moreover, the “tissue capacitance (Ct) average increase” value with iPSC-RPE (Z8) (100 μM apical ATP, about 10 min, perfusion chamber) amounted to 11%. Besides, the “time to return to within 95% of baseline after ATP” value with iPSC-RPE (Z8) (both perfusion and Ussing chambers) is recorded as not above 40 min. Moreover, in the assay with iPSC-RPE (Z8) (during ATP exposure, samples 1, 2 and 3, Ussing chamber), the “extracellular time constant ratio response” value is on record as “increased in magnitude”. Further, the “apical membrane resistance decrease” value with iPSC-derived RPE (100 μM apical ATP exposure, sample 1) amounted to 62%. In addition, the “apical membrane resistance increase” value in the assay on iPSC-derived RPE (100 μM apical ATP exposure, sample 2) is given as 89%; in the assay on iPSC-derived RPE (100 μM apical ATP exposure, sample 3), 139%. Further, the membrane-specific capacitance changes entry with iPSC-derived RPE (Sample 1) was “did not display ATP650-induced changes”; in the assay on iPSC-derived RPE (Samples 2 and 3), “concurrent reductions in apical capacitance and elevations in basolateral capacitance”. For the same compound, the “depolarization of the apical membrane (Va)” value with iPSC-derived RPE (by the end of the ATP exposure, all three samples) is “approximately 20 mV”; in the assay with iPSC-derived RPE (first phase of the ATP-induced response, Sample 3), 10 mV; with iPSC-derived RPE (first phase of the ATP-induced response, Samples 1 and 2) it was 20 mV. In addition, the “change in apical capacitance Ca” value in the assay on iPSC-derived RPE (during ATP administration) stood at 12%. Also, the “change in basolateral capacitance Cb” value with iPSC-derived RPE (during ATP administration) is given as −6%. Besides, the TER response result in the assay with iPSC-derived RPE (during ATP exposure, 3P-Classical or exemplary method) is on record as “decrease in TER”. The “basolateral resistance (Rb) response” value with iPSC-derived RPE (during ATP exposure, Sample 3) was “expected reduction”. Besides, the “shunt resistance (Rs) response” value with iPSC-derived RPE (during ATP exposure, all samples) is “rapid and substantial decrease”. Moreover, the TEP response entry in the assay with iPSC-derived RPE (remainder of the ATP exposure, all three samples) is recorded as “increase in TEP”.
